In PMC5224880, “Discovery and Molecular Basis of a Diverse Set of Polycomb Repressive Complex 2 Inhibitors Recognition by EED” (PLoS ONE, 2017) one finds IC50 data, which are given here for 5 compounds.

Molecules are shown by their SMILES.

Holding throughout (type): biochemical
Assay [1] addresses EZH2 (EZH2/EED/SUZ12/RBAP48/AEBP2) (Homo sapiens, UniProt O75530+Q15910). The experiment in a line: HMT panel selectivity: EZH2. The text has this: This assay employs liquid chromatography mass spectrometry technology using peptide or nucleosome as substrate and then detects the formation of the co-product SAH [11, 25].
(§1) Note: for EZH2, EZH2/EED/SUZ12/RBAP48/AEBP2 was used in the assay; for EZH1, EZH1/EED/SUZ12/RBAP48/AEBP2 was used in the assay; for MLL, MLL/WDR5/RBBP5/ASH2L/ was use in the assay. a, H3K27me0 peptide was used as substrate for both EZH2 and EZH1 activity; b, H3K27me1 peptide was used as substrate for both EZH2 and EZH1 activity.

Assay [2] deals with EZH1 (EZH1/EED/SUZ12/RBAP48/AEBP2) (Homo sapiens, UniProt O75530+Q92800). The experiment in a line: HMT panel selectivity: EZH1.
Sequence of EZH1 (EZH1/EED/SUZ12/RBAP48/AEBP2) (Q92800 whole entry): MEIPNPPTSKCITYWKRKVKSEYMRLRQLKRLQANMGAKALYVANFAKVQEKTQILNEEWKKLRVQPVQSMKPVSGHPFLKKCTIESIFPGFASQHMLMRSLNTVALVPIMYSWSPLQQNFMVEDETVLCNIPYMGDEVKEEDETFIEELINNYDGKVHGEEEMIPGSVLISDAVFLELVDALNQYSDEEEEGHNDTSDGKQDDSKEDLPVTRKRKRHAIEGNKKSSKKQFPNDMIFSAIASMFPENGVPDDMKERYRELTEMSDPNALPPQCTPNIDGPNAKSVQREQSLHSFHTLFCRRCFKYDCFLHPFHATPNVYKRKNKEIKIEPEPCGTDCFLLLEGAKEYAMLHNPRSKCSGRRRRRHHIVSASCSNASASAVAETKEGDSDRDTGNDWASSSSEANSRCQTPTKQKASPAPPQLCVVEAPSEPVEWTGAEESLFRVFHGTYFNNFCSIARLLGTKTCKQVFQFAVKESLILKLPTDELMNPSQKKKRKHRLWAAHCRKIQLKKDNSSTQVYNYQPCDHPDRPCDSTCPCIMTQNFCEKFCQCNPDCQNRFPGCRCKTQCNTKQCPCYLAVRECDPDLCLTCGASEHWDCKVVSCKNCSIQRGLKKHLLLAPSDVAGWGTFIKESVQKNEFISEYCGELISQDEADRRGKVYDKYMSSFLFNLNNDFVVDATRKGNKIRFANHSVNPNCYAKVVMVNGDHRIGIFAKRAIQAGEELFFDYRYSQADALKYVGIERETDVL
Sequence of EZH1 (EZH1/EED/SUZ12/RBAP48/AEBP2) (O75530 whole entry): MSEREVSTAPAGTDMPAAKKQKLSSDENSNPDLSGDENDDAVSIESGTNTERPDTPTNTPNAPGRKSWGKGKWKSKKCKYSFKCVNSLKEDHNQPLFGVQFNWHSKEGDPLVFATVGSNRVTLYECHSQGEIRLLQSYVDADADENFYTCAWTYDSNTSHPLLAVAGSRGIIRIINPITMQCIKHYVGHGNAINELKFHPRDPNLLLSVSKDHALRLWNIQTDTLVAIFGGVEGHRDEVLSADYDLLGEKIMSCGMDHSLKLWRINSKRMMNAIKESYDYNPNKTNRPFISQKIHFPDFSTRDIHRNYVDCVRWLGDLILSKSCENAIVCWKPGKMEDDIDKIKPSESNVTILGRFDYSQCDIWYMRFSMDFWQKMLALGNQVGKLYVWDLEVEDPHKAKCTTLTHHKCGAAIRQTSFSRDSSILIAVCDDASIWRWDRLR
Sequence of EZH1 (EZH1/EED/SUZ12/RBAP48/AEBP2) (Q15022 whole entry partner): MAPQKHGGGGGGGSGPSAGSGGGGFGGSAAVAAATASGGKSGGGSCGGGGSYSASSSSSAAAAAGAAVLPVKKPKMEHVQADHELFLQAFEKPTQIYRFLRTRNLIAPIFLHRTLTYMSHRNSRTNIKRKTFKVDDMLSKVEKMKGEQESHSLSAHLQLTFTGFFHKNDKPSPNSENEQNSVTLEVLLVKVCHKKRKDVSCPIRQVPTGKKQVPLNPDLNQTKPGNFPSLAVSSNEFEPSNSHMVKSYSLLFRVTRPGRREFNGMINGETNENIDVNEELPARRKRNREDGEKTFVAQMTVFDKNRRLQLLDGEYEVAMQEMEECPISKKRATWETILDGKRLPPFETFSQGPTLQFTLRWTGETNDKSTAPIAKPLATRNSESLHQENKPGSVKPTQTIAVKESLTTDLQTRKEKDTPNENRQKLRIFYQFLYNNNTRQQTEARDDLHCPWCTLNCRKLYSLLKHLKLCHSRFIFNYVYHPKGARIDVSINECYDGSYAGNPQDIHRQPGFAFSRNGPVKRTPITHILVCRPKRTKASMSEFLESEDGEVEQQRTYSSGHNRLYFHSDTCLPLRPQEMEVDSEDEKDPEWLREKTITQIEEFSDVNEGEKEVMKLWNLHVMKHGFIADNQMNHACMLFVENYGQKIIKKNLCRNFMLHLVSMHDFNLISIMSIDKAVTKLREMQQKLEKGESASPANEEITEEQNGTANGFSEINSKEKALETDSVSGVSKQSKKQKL
Sequence of EZH1 (EZH1/EED/SUZ12/RBAP48/AEBP2) (Q09028 whole entry partner): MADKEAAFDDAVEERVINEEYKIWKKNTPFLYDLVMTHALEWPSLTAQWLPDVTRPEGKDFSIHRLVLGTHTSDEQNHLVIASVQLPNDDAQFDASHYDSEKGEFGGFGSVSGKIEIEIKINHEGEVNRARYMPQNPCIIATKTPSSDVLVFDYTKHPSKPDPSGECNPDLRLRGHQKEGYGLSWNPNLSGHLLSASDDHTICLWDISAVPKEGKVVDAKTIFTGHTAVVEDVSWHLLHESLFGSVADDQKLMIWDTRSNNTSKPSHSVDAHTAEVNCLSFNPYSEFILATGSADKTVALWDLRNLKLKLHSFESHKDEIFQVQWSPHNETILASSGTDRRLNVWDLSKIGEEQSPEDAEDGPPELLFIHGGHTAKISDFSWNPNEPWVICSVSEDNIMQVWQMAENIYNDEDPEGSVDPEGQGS
Sequence of EZH1 (EZH1/EED/SUZ12/RBAP48/AEBP2) (Q6ZN18 whole entry partner): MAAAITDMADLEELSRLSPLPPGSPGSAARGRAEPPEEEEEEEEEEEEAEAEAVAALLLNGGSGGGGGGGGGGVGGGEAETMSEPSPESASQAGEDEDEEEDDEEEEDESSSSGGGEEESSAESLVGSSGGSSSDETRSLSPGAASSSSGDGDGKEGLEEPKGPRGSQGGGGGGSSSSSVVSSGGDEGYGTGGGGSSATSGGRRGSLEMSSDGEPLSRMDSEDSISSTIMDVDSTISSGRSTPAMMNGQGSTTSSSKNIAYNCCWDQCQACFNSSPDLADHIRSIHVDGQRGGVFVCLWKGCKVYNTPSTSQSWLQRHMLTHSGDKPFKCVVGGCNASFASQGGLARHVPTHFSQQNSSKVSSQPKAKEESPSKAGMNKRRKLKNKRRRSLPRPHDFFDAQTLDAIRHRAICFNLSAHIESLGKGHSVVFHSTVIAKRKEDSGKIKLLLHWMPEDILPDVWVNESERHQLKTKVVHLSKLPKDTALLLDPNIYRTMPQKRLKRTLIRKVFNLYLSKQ
Excerpt: as §1

Assay [3] concerns the target MLL (MLL/WDR5/RBBP5/ASH2L) (Homo sapiens, UniProt Q03164). The experiment in a line: HMT panel selectivity: MLL. The protocol:
(§2) Note: for EZH2, EZH2/EED/SUZ12/RBAP48/AEBP2 was used in the assay; for EZH1, EZH1/EED/SUZ12/RBAP48/AEBP2 was used in the assay; for MLL, MLL/WDR5/RBBP5/ASH2L/ was use in the assay. a, H3K27me0 peptide was used as substrate for both EZH2 and EZH1 activity; b, H3K27me1 peptide was used as substrate for both EZH2 and EZH1 activity. All HMT reactions were performed as described previously. ref: Proc Natl Acad Sci U S A. 2012 Dec 26;109(52):21360-5.

The target of another assay is T1, SMYD3 (Homo sapiens, UniProt Q9H7B4).
T1 sequence (Q9H7B4 1-428): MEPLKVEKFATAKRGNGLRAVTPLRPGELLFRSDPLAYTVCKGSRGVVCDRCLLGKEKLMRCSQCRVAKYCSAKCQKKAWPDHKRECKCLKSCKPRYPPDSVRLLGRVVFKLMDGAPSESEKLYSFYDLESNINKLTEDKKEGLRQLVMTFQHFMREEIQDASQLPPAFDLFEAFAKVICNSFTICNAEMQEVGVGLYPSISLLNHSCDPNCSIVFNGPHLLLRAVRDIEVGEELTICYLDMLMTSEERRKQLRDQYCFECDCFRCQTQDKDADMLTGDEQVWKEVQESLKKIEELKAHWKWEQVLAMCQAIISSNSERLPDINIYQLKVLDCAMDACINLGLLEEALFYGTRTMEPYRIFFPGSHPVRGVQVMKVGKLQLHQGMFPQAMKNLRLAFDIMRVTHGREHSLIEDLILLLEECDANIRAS
The experiment in a line: HMT panel selectivity: SMYD3. The protocol:
as §2

Another assay deals with T2, SetD8 (Homo sapiens, UniProt Q9NQR1).
T2 sequence (Q9NQR1 1-393): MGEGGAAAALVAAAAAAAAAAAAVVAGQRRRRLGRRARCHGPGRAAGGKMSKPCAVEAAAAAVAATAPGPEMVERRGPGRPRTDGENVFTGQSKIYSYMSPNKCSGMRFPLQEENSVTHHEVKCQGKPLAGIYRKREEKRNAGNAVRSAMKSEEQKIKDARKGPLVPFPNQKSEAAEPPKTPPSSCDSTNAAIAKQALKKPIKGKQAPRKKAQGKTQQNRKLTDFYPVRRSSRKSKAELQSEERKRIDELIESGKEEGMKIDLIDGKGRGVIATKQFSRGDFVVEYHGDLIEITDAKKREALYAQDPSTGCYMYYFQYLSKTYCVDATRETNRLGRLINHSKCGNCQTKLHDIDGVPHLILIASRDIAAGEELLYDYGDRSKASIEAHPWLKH
Put plainly: HMT panel selectivity: SetD8. The protocol: as §2

The target in the next assay is T3, NSD3 (Homo sapiens, UniProt Q9BZ95).
T3 sequence (Q9BZ95 1-1437): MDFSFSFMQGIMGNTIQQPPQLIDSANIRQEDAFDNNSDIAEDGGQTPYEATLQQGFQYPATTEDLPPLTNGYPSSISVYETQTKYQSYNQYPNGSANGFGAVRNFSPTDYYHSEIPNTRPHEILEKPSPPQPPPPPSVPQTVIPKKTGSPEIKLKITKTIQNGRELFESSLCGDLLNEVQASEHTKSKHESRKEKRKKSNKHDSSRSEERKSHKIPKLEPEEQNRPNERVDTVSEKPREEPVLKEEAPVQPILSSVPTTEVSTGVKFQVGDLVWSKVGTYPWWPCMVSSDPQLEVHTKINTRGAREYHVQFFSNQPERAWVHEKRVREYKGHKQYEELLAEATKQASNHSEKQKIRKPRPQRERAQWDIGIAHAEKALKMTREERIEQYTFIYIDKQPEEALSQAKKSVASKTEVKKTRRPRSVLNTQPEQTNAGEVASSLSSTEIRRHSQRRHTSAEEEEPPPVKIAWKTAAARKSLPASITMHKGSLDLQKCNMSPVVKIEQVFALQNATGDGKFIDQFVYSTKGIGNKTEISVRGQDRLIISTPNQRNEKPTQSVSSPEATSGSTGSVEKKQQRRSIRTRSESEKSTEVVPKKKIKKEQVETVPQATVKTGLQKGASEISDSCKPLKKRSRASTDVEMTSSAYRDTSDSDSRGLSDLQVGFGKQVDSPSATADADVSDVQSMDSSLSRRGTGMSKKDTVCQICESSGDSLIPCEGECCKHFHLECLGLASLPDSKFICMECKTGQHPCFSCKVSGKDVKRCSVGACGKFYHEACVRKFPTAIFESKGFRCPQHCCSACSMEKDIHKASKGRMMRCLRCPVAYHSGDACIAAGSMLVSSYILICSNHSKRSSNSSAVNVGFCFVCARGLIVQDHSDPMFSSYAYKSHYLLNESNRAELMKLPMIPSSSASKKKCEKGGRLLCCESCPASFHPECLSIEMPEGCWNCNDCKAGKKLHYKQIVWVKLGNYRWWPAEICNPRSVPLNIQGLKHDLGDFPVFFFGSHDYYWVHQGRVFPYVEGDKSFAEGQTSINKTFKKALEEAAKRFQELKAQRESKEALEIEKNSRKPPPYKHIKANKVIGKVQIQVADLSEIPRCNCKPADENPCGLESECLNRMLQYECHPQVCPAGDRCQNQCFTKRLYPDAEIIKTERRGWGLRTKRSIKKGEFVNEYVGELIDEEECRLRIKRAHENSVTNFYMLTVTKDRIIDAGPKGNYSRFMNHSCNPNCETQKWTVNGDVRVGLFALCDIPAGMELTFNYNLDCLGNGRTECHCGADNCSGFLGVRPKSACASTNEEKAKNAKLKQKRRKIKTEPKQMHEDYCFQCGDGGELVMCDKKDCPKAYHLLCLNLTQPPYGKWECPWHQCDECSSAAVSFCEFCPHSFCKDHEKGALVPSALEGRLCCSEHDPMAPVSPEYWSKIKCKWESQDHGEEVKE
The experiment in a line: HMT panel selectivity: NSD3. The method, then:
as §2

Sequence of EZH2 (EZH2/EED/SUZ12/RBAP48/AEBP2) (Q15910 whole entry): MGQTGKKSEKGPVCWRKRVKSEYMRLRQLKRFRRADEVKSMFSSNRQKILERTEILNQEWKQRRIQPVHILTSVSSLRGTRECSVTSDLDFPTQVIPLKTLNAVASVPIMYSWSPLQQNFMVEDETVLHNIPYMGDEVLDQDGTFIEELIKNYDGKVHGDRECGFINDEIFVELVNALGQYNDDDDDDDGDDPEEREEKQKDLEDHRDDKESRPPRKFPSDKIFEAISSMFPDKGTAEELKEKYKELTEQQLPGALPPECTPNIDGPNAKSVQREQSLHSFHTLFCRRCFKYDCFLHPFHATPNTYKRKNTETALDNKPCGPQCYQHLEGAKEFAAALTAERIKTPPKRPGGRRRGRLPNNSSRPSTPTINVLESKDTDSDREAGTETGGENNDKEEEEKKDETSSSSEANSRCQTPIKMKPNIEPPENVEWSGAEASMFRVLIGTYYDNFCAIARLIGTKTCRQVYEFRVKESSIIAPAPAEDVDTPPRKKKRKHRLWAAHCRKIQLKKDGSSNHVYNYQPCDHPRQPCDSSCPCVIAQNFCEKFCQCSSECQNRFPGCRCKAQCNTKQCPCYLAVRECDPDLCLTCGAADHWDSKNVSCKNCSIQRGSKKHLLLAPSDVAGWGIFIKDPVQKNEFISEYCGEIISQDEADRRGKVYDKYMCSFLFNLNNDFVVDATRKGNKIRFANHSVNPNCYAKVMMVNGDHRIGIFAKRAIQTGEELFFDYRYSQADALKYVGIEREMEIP
Sequence of EZH2 (EZH2/EED/SUZ12/RBAP48/AEBP2) (O75530 whole entry): as the sequence (O75530 whole entry) above
Sequence of EZH2 (EZH2/EED/SUZ12/RBAP48/AEBP2) (Q15022 whole entry partner): as the sequence (Q15022 whole entry partner) above
Sequence of EZH2 (EZH2/EED/SUZ12/RBAP48/AEBP2) (Q09028 whole entry partner): as the sequence (Q09028 whole entry partner) above
Sequence of EZH2 (EZH2/EED/SUZ12/RBAP48/AEBP2) (Q6ZN18 whole entry partner): as the sequence (Q6ZN18 whole entry partner) above

One may read the IC50 as the concentration that gives 50% inhibition. The low end stands for greater potency, the high end for weaker potency. As to `N#Cc1c2c(c3nncn3c1NCc1ccco1)CN(Cc1ccccc1)CC2` [EED162], the IC50 in assay [1] is 2.2 µM; in assay [2], 5.1 µM; in assay [3], greater than 100 µM; at SMYD3, greater than 100 µM; against SetD8 it was greater than 100 µM; on NSD3, greater than 100 µM.
As for `COc1cccc(CC2CC3Cc4c(cccc4OC)CC3N(C)C2)c1` (centres unmarked) [EED210], the IC50 (in assay [3]; against SMYD3; against SetD8; at NSD3) was greater than 100 µM each time.
With `COc1cc(-c2cc3n(c(=N)c2C#N)CCc2cc4c(cc2-3)OCO4)ccc1OC(C)C` [EED396], the IC50 is 87 µM in assay [1]; 70 µM in assay [2]; greater than 100 µM in assay [3]; greater than 100 µM on SMYD3; greater than 100 µM against SetD8; greater than 100 µM at NSD3.
Consider `Cc1cc(C)n(-c2cc(N3CCc4ccccc4C3)ccc2[N+](=O)[O-])n1` [EED666], for which the IC50 in assay [1] was 99 µM; in assay [2] it was 66 µM; in assay [3], greater than 100 µM; at SMYD3, greater than 100 µM; on SetD8 it was greater than 100 µM; against NSD3 it was greater than 100 µM.
Regarding `COc1ccccc1CN1CC(c2cn(C)c3ccccc23)C(N(C)C)C1` (centres unmarked) [EED709], the IC50 (in assay [3]; at SMYD3; against SetD8; against NSD3) was greater than 100 µM each time.
